Patent US7407940B2, “Antimicrobial hexapeptides” (Helix BioMedix Inc., priority 2005, dated 2008)
Where a SMILES comes first, the peptide text is derived from it. Where no end group is shown, it is not given here. [ ]: non-standard residue; d: D form. The star is where a group is joined. Undecanoyl = CCCCCCCCCCC(=O)*; Lauroyl = CCCCCCCCCCCC(=O)*; Octanoyl = CCCCCCCC(=O)*

Columns and labels:
[1] = test system: azole resistant strains of C. albicans; type: cell-based; settings: azole resistant strains of C. albicans
Procedure: (§1) The fractional inhibitory concentration (FIC) index was used to determine the synergy between antimicrobial agents. Peptide MICs against test microorganisms were determined three times on separate occasions. […]
All strains are azole resistant clinical isolates from Prof. Ted White (Seattle Biotechnology Research Institute, Seattle)

[2] = test system: P. aeruginosa; type: cell-based; settings: drug resistant P. aeruginosa
Procedure: as §1

[3] = test system: Lipoteichoic acid (LTA); assay: LTA binding assay; settings: FIG. 7
Description: Lipoteichoic acid (LTA) is a common cell wall component of gram-positive bacteria including organisms such as S. aureus and P. acnes. The release of LTA during infection can lead to the release of mediators of the host inflammatory response which in turn can result in sepsis (septic shock). For example, when injected into animals, LTA can elicit many of the characteristic features of septic shock, including cytokine production, leukocytopenia, circulatory failure, multiple-organ dysfunction syndrome, and mortality.

[4] = test system: MRSA; assay: Kill curve in 10% sheep serum-phosphate buffer against MRSA; type: cell-based, S. aureus; settings: 10% serum / biological environments
[5] = test system: S. aureus; assay: Kill curve in vaginal simulant, S. aureus; type: cell-based; settings: FIG. 2
Description: (§2) An additional embodiment of the invention is directed towards methods of treating sexually transmitted diseases (STDs). Many of the fungal species responsible for STDs are likely to be inhibited or killed by application of one or more of the inventive hexapeptides of Table 1. Examples of such species include C. albicans, C. glabrata, and C. tropicalis. The inventive hexapeptide/s may additionally be used against other agents responsible for STDs including viruses and bacteria. The hexapeptide/s can be administered to an STD patient by any acceptable method, such as topical, oral, or systemic delivery. The hexapeptide/s can be administered in a single dose, in multiple doses, or as a continuous delivery. The hexapeptide/s can be administered in any acceptable form, such as a cream, gel, or liquid. An indication of the likelihood of activity of the hexapeptides of the present invention in the vaginal environment is shown in FIG. 2, where the activity of SEQ ID NO:55 is shown in killing curves against C. Albicans and S. aureus.

[6] = test system: C. albicans; assay: Kill curve in vaginal simulant, C. albicans; type: cell-based; settings: FIG. 2
Description: as §2

[7] = set-up: species or system Sprague-Dawley rats; settings: rat, in vivo
Description: Each wound observed at each dressing change and the wound surface and tissue reaction assessed. There were 5 parameters of wound status that were checked: • i. Wound Film Security—Was the adhesive film used to cover the wound still completely adherent to the skin around the wound? • ii. Wound Surface—What was the exact visual appearance of the wound surface? • iii. Amount of Exudate—How much exudate was trapped under the film? In many cases, accumulated exudate causes the film to lose adherence and the exudates will escape. • iv. Severity of Tissue Reaction—A subjective rating of extent of tissue reaction on a scale of 1 (minimal), 2 (moderate), 3 (extensive). • v. % of Tissue Involved—In some situations, the wound surface contained denatures, friable tissue that could be wiped off with pressure applied to gauze. This test was used to better differentiate denatured tissue from viscous exudates.

[8] = test system: Trychophyton rubrum; assay: MIC100 against dermatophyte Trychophyton rubrum; type: cell-based; settings: T. rubrum; 125 ppm, day ten
Procedure: (§3) In order to compare the activity of various antimicrobial peptides, including hexapeptide SEQ ID NO:1 (P0666), MIC were determined against the dermatophytes Trychophyton rubrum and Trychophyton mentagrophytes. The concentration of samples investigated were: 2000, 1000, 500, 250 and 125 μg/ml, respectively. The medium used was modified Sabouraud's media without agar. For a 100 mL of modified Sabouraud medium: 3 g of Sabouraud's dextrose broth (Difco) was mixed into 100 mL of deionized water. The pH was adjusted to 7.0 with 0.1 N NaOH. The solution was autoclaved for thirty minutes. 940 μL of medium was poured into sterile 20 mL test tubes with plastic caps and was allowed to cool.
(§4) 50 μL of […] was added to each 20 mL test tube to make the required concentration. A control tube was composed of 50 μL of saline without sample. For the MIC experiments,
(§5) 10 μL of organism suspended in saline was added to the each 20 mL test tube and vortexed slightly. Each of the test tubes was covered in parafilm and maintained on a shaker at 27° C. at a speed of approximately 100 rpm.
(§6) The growth/inhibition of the organism was observed on a daily basis. […] The Minimum Inhibition Concentration (MIC100) for compounds F1 to F10 against fungus Trychophyton rubrum and Trychophyton mentagrophytes at 10 days.

[9] = test system: Trychophyton mentagrophytes; assay: MIC100 against dermatophyte Trychophyton mentagrophytes; type: cell-based; settings: T. mentagrophytes; 125 ppm, day ten
Procedure: as §3, §4, §5, §6

[10] = Systemic toxicity, tail vein injection; type: in vivo; settings: mouse, IV, 20 mg/kg
[11] = test system: S. aureus; assay: Kill curve in 80% serum, S. aureus; type: cell-based
Description: It should be noted that in addition to MIC data, the lipo-hexapeptides can also be distinguished by their ability to kill bacteria in the presence of biological constituents such as serum. […] This activity, an indicator of therapeutic potential, is not obvious from the MIC data alone.

[12] = test system: Pseudomonas aeruginosa; type: cell-based; set-up: MIC, lipid length SAR: unit not given here; settings: P.aeruginosa
Summary of the method: (§7)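 For this NCCLS-based method, inoculum density depended on organism: 2×10^5–7×10^5 CFU/ml for bacteria and 2×10^3–7×10^3 CFU/ml for Candida. Incubation at 35° C lasted 16–20 h or 46–50 h, respectively, and the MIC was scored by visible turbidity.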

[13] = test system: Salmonella typhimurium 14028S; assay: MIC, broth microdilution, S. typhimurium; type: cell-based; set-up: unit not given here; settings: S.typhimurium
Summary of the method: as §7

## CCCCCCCC(=O)N[C@@H](CCCCN)C(=O)N[C@@H](Cc1ccccc1)C(=O)N[C@@H](CCCCN)C(=O)N[C@@H](Cc1c[nH]c2ccccc12)C(=O)N1CCC[C@H]1C(=O)N[C@@H](Cc1c[nH]c2ccccc12)C(N)=O [SEQ ID NO:55] (Octanoyl-KFKWPW-NH2)
[1]
  synergy with clotrimazole (in words): exhibits synergy
[2]
  synergy with polymyxin B (in words): displayed synergistic activity
[3]
  LTA binding (in words): fail to bind LTA
[4]
  ability to kill S. aureus in serum (in words): increased ability
[5]
  killing in vaginal simulant (in words): killing
[6]
  killing in vaginal simulant (in words): killing
[7]
  tissue reaction (in words): mild

## KFKWPW-NH2 [SEQ ID NO:1]
[8]
  growth of organism: only a slight growth
[9]
  growth of organism: only a slight growth
[10]; solvent water
  Result (systemic toxicity): did not elicit systemic toxicity

## KYKKALKKLAKLL-NH2 [SEQ ID NO:92]
[10]; solvent ringers
  Result (systemic toxicity): 3/3 dead

## Lau-kfkwpw-NH2 (Lauroyl-[dK][dF][dK][dW][dP][dW]-NH2; SMILES CCCCCCCCCCCC(=O)N[C@H](CCCCN)C(=O)N[C@H](Cc1ccccc1)C(=O)N[C@H](CCCCN)C(=O)N[C@H](Cc1c[nH]c2ccccc12)C(=O)N1CCC[C@@H]1C(=O)N[C@H](Cc1c[nH]c2ccccc12)C(N)=O) [SEQ ID NO: 83]
[11]
  killing of S. aureus in 80% serum (in words): perform very well

## Und-KFKWPW-NH2 (Undecanoyl-KFKWPW-NH2; SMILES CCCCCCCCCCC(=O)N[C@@H](CCCCN)C(=O)N[C@@H](Cc1ccccc1)C(=O)N[C@@H](CCCCN)C(=O)N[C@@H](Cc1c[nH]c2ccccc12)C(=O)N1CCC[C@H]1C(=O)N[C@@H](Cc1c[nH]c2ccccc12)C(N)=O) [SEQ ID NO: 79]
[12]
  MIC, lipid length SAR: 8-16
[13]
  MIC, lipid length SAR: 8-16
[11]
  killing of S. aureus in 80% serum (in words): perform very well
